Laboratory results taken from patent US10655163B2, “Methods, kits, and systems for multiplexed detection of target molecules and uses thereof” (THE GENERAL HOSPITAL CORPORATION, priority 2013, dated 2020).
Entries after “also recorded” stand apart in the source; their conditions may differ.

What was measured:
[1] = tested on: four human cancer cell lines; assay: Proteomic profiling of olaparib and cisplatin treatments; type: cell-based; conditions: FIGS. 15C-15D
Method: Proteomic profiling of olaparib and cisplatin treatments was performed for four human cancer cell lines, showing varying drug sensitivities as measured by viability assays (FIGS. 14A-14B and FIG. 15A).
Drug treatments of cell lines. To test the effect of drug treatment on protein expression levels, the cell lines were treated with a number of different chemotherapeutic or molecularly targeted drugs. […] DNA-damaging agents olaparib and cisplatin were applied to cells for 3 days. Changes in protein expression levels were compared to medium controls under identical conditions but without drug treatment.
Data analysis: calculating proteomic expression profiles. Protein expression profiles were extracted from raw data as follows. First, raw DNA counts were normalized via the mean of the internal NanoString positive controls, which account for hybridization efficiency. […]
Correlation between single-cell analysis and bulk measurement was calculated in GraphPad Prism. Spearman r values were calculated without assuming a normal, consistent distribution. Two-sided P values were calculated, where significant markers were identified by comparing two groups (for example, treated versus untreated) in Prism and performing pairwise t tests with an FDR of 0.2 for multiple test correction error. […] Class separability was measured by the Bhattacharya distance.

[2] = tested on: HT1080 fibrosarcoma cell lines; assay: Taxol dose response screen in HT1080 cells, ABCD protein marker profiling; type: cell-based, human; conditions: different doses of taxol
Source text: Having established feasibility of inter- and intrapatient analyses in clinical samples, it was next sought to explore the feasibility of monitoring cancer treatment over time. To this end, it was first sought to determine if known pathway responses to different drug treatments could be discriminated. […]. […] Notable examples include pS6RP for targeted treatments, and pH2A.X, pATM/ATR (phospho-ataxia telangiectasia mutated/ATM- and Rad3-related) substrate, and cleaved PARP for DNA-damaging agents. Unexpected results, such as epigenetic histone modifications after treatment with a phosphatidylinositol 3-kinase inhibitor (PI3Ki) was also found (FIG. 15E). For additional in vitro validation of treatment, HT1080 fibrosarcoma cell lines were treated with four different doses of taxol.
To evaluate the assay's ability to measure even small marker changes, HT1080 human fibrosarcoma cells were treated with taxol at […] different doses. Marker changes at high doses were compared to marker changes quantified by an independent immunofluorescence screen (FIG. 16A). […] These in vitro studies established that the marker panel could indeed measure pathway changes in response to varying drug mechanisms; furthermore, these changes could be detected in a sensitive, dose-dependent manner.
Immunofluorescence. […]

Compound	changes in DNA damage and apoptosis markers [1]	protein marker changes in response to taxol treatment [2]
N.N.[Cl][Pt][Cl] [cisplatin]	degradation of Bim and up-regulation of pERK	
CC(=O)O[C@H]1C(=O)[C@@]2(C)[C@H]([C@H](OC(=O)c3ccccc3)[C@]3(O)C[C@H](OC(=O)[C@H](O)[C@@H](NC(=O)c4ccccc4)c4ccccc4)C(C)=C1C3(C)C)[C@]1(OC(C)=O)CO[C@@H]1C[C@@H]2O [taxol, paclitaxel]		dose-response changes; also recorded: dose-response curves
